What was measured:
[1] = molecular target: Sodium channel protein type 8 subunit alpha (Rattus norvegicus) (UniProt O88420); assay: Inhibition of rat NaV1.6-mediated current expressed in human HEK293 cells at 10 uM by patch clamp assay; assay type: cell-based
[2] = molecular target: Sodium channel protein type 8 subunit alpha (Rattus norvegicus, UniProt O88420); assay: Inhibition of rat NaV1.6-mediated current expressed in human HEK293 cells by patch clamp assay; assay type: cell-based
Sodium channel protein type 8 subunit alpha, sequence (O88420 whole entry): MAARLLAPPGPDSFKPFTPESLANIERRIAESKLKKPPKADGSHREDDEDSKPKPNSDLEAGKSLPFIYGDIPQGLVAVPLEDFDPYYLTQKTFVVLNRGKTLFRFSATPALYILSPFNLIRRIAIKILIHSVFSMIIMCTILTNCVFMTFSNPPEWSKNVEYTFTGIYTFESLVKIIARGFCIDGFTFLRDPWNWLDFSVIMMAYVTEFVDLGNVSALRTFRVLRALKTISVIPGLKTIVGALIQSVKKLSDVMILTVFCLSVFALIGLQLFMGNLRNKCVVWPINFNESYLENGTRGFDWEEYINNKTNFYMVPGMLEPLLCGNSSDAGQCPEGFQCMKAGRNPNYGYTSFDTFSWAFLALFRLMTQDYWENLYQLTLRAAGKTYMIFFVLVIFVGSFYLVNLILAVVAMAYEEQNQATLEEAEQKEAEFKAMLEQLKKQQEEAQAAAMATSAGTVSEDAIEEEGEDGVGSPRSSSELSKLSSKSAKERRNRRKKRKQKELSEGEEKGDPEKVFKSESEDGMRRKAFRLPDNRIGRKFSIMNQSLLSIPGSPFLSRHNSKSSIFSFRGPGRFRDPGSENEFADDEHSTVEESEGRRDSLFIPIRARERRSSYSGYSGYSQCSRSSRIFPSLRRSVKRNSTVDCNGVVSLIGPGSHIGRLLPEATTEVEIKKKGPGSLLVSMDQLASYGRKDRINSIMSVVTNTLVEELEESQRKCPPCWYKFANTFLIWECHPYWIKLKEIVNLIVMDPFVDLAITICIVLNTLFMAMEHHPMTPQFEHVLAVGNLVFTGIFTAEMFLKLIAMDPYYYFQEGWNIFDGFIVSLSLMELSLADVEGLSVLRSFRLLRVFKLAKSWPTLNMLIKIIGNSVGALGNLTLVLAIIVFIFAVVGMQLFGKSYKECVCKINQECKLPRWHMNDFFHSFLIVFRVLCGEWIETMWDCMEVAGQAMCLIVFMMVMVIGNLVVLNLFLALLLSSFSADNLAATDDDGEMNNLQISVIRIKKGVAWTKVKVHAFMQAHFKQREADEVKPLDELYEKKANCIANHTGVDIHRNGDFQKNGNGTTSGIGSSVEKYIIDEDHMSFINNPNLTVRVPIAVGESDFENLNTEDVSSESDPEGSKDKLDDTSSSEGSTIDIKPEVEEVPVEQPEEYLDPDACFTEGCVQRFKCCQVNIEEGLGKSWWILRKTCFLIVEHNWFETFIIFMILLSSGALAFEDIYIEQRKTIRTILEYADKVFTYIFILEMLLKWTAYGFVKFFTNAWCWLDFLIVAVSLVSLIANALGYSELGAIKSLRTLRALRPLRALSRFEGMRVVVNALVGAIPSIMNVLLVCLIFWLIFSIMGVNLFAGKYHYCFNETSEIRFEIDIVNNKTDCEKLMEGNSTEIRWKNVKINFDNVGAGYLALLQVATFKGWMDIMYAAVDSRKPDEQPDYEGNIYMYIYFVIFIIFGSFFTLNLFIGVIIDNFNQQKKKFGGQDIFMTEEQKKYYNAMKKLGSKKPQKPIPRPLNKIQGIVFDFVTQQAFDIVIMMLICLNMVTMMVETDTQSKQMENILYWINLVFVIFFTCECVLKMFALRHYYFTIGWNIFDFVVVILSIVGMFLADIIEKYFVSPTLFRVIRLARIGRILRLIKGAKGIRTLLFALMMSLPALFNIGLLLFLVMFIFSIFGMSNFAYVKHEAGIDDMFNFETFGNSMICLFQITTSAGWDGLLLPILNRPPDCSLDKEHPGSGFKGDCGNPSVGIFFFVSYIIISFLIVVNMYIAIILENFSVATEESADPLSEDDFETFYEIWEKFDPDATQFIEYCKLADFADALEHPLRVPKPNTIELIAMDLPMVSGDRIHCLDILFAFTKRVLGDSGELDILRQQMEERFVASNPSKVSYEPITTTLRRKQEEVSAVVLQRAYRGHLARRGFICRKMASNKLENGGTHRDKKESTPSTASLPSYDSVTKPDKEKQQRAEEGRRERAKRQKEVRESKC

Sodium channel protein type 8 subunit alpha (Rattus norvegicus), sequence (O88420 whole entry): as above

Row | SMILES | inhibition [1] [%] | IC50 [2] [µM]
1 | c1ccc(CCn2cc(COc3ccccc3)nn2)cc1 | 8.9 | 
2 | O=C(Cn1cc(COc2ccccc2)nn1)c1ccccc1 | 13.6 | 
3 | c1ccc(Cn2cc(CCCOc3ccccc3)nn2)cc1 | 26 | 31.7
4 | O=C(Cn1cc(CCCOc2ccccc2)nn1)c1ccccc1 | 22.7 | 53.6
5 | c1ccc(Cn2cc(COc3ccccc3)nn2)cc1 | 11 | 
6 | c1ccc(CCn2cc(-c3ccccc3)nn2)cc1 | 11.5 | 
7 | c1ccc(OCc2cn(-c3ccccc3)nn2)cc1 | 16 | 28.5
8 | c1ccc(Cn2cc(-c3ccccc3)nn2)cc1 | 10 | 125
9 | c1ccc(CCn2cc(CCCOc3ccccc3)nn2)cc1 | 22.7 | 52
10 | c1ccc(OCCCc2cn(-c3ccccc3)nn2)cc1 | 5.9 | 
11 | c1ccc(-c2cn(-c3ccccc3)nn2)cc1 | 6.2 | 
12 | COc1ccc(-c2nc(-c3ccccc3)c[nH]2)cc1 | 21.7 | 19.6
13 | O=C(Cn1cc(-c2ccccc2)nn1)c1ccccc1 | 3.9 | 
14 | c1ccc(-c2c[nH]c(-c3ccccc3)n2)cc1 | 16 | 

Source: ChEMBL document CHEMBL2150924, “Inhibition of NaV1.6 sodium channel currents by a novel series of 1,4-disubstituted-triazole derivatives obtained via copper-catalyzed click chemistry” (Bioorg Med Chem Lett, 2012)
